Measurements published in US11197862B2, “Methods of preventing toxicity of platinum drugs” (XOMICS BIOPHARMA, INC., priority 2015, dated 2021).
Entries after “also recorded” stand apart in the source; their conditions may differ. One block for each compound: values may come before it.

Key:
OCT2 and MATE1 = experiment: Buflomedil inhibition of OCT2 and MATE1 with cisplatin or oxaliplatin as substrate (FIG. 15B); assay type: cell-based, human
[1] = tested on: cells co-expressing OCT2 and MATE1; experiment: Intracellular oxaliplatin content in cells co-expressing OCT2 and MATE1; assay type: cell-based; conditions: oxaliplatin 100 μM in 4% BSA HBSS, 90 min
Text: In most naturally occurring cells, uptake transporters co-exist with efflux transporters. It is the interplay between the uptake and efflux transporters that determines the net intracellular accumulation of a substrate. One example is in the proximal tubule epithelial cells in the kidney, where the basolaterally expressed transporters, mainly OCT2, work in concert with the apically expressed MATE1 and MATE2K [5]. […] Cells with single expression of OCT2 or GFP mock were also used as a control.

[2] = tested on: MDCK cells expressing OCT2, MATE1 and MATE2K; experiment: LDH cytotoxicity of cisplatin in MDCK-II triple-transporter model; assay type: cell-based, canine; conditions: 6 μM buflomedil; 1 mM cisplatin; FIG. 7
Procedure: A triple-transporter model for OCT2(SLC22A2), MATE1(SLC47A1), and MATE2-K(SLC47A2) was created by transfecting fully confluent MDCK-II cell monolayers with DNA mixture containing the plasmids encoding OCT2, MATE1, and MATE-2K at concentrations of 40, 15, and 5 ng/μl, respectively. […] This systems were cultured in complete medium consisting of Dulbecco's modified Eagle's medium without phenyl-red with 10% fetal bovine serum in an atmosphere of 5% CO2-95% air at 37° C. The apical medium was adjusted to pH 6.7 with 25 mM of 2-(N-morpholino) ethanesulfonic acid (MES).
Dolutegravir was tested at 10 μM. […] Cytotoxicity was tested using the same procedure described above.

[3] = Buflomedil plasma concentration in Balb/C mice after IV and IP administration; assay type: in vivo; conditions: male, mouse
Procedure: Male mice of 7-8 weeks of age were allowed to acclimate for 6 days. […] Blood was collected at 0.083, 0.5, and 1 hour into Heparin tubes. The plasma was obtained through centrifugation of the blood at 4000 rpm at 4° C.
For plasma sample analysis, the samples were thawed and mixed well before 20 µL aliquots were processed using protein precipitation by internal standard (Verapamil) containing organic solution, methanol: acetonitrile 5:95 (v/v). After vigorous vortexing and refrigerated centrifugation at 4000 rpm, 50 μL of the extract from each sample was reconstituted with 70 μL of 0.1% formic acid in water. […] The calibration curve was extracted in the same way as the plasma samples. The final extracts were analyzed by LC-MS/MS using positive electrospray ionizations under the multiple-reaction-monitoring (MRM) mode for the detection of buflomedil. The standard curve fitted by linear regression was used to quantify the analyte in the matrix using Analyst 1.5.2 software (AB Sciex) Results

[4] = tested on: Balb/c mice exposed to chronic treatment with Oxaliplatin; experiment: Dynamic Plantar Aesthesiometer Test in chronic oxaliplatin neuropathy model; assay type: in vivo, mouse; conditions: for mechanical allodynia, Dynamic Aesthesiometer Test at the end of treatment: OXA 3.5 mg/kg iv, 8 cycles ± BFMD 30 mg/kg ip + 15 mg/kg iv
Procedure: The Dynamic Plantar Aesthesiometer Test was used to determine the alterations in mechanical pain perception and their changes due to pharmacological treatment. Mice were accustomed to the device 3 days before performing the tests after a 1 hour acclimatization period followed by testing. The mechanical nociceptive threshold was assessed using a Dynamic Aesthesiometer Test (model 37450, Ugo Basile Biological Instruments, Comerio. Italy), which generated a linearly increasing mechanical force. At each time point, after the acclimatization period, a servo-controlled mechanical stimulus (a pointed metallic filament, 0.5-mm diameter) was applied to the plantar surface of the hind paw, which exerted a progressively increasing punctuate pressure, reaching up to 15 g within 15 seconds. The pressure evoking a clear voluntary hind-paw withdrawal response was recorded automatically and taken as representing the mechanical nociceptive threshold index. The mechanical threshold was always assessed alternatively on each side every 2 minutes on 3 occasions to yield a mean value. The results represent the maximal pressure (expressed in grams) tolerated by the animals. There was an upper limit cutoff of 30 seconds, after which the mechanical stimulus was automatically terminated.

[5] = Plasma levels of buflomedil and oxaliplatin in the chronic model; assay type: in vivo, mouse; conditions: 15 minutes after the 8th cycle
Procedure: At baseline (before drug treatment) and at the end of treatment, caudal nerve conduction study (NCS), behavioral tests (Dynamic and Cold Plate), histopathology study were performed. Serum samples were collected at the end of treatment.

[6] = Mortality, clinical observations and body weight in the chronic model; assay type: in vivo, mouse; conditions: BFMD 30 mg/kg ip + 15 mg/kg iv ± OXA 3.5 mg/kg iv, twice a week for 4 weeks; n=12/group
[7] = Dolutegravir plasma concentration in Balb/C mice after PO, IV and IP administration; assay type: in vivo, mouse; conditions: 10 mg/kg PO, 4 mg/kg IV, 4 mg/kg IP
Procedure: Male mice of 6-7 weeks of age were obtained from Charles River and allowed to acclimate for 3-5 days. The mice were weighed and individually identified (tail marked). The mice (n=3) in the oral (PO) group were fasted overnight and orally gavaged with 10 mg/kg of Dolutegravir. The second group of mice (n=3) were intravenously (IV) injected with 4 mg/kg of Dolutegravir. The third group of mice (n=3) were intraperitoneally (IP) injected with 4 mg/kg of Dolutegravir. At 10 min, 0.5 h, 1 h post dosing. ˜120 μl of blood sample was collected from the IV and IP mice by orbital venous sinus bleeding. At 1 h, 2 h, 4 h post dosing, ˜120 μl of blood sample was collected from the PO mice by orbital venous sinus bleeding. […] For analysis, the plasma samples were diluted into the calibration range as needed. […] The calibration curve was extracted in the same way as the unknown samples. The final extracts were analyzed by LC-MS/MS using positive electrospray ionizations under the multiple-reaction-monitoring (MRM) mode for the detection of Dolutegravir. The standard curve fitted by linear regression was used to quantify the analyte in the matrix using Analyst 1.6.2 software (AB Sciex).

[8] = tested on: Balb/c mice exposed to acute treatment with Oxaliplatin; experiment: Dynamic test (mechanical pain threshold) after a single oxaliplatin administration; assay type: in vivo, mouse; conditions: 24 hours after single OXA 3.5 mg/kg iv, DTG 4 mg/kg ip 1 hour before, CPC 4 mg/kg iv co-administered
Procedure: OXA vehicle, OXA, CPC, DTG, DTG+OXA and CPC+OXA were administered once time. In the group co-administered with OXA and DTG. DTG was injected intraperitoneally 1 hour before the administration of OXA. In the group co-administered with OXA and CPC, CPC was co-administered with OXA intravenously. Mechanical allodynia and cold sensory threshold (dynamic test and cold plate test) were performed 24 and 48 hours after the treatment, respectively, using the methods described in EXAMPLE 15 Plasma Sample Collection

[9] = human, in vivo

SMILES: COc1cc(OC)c(C(=O)CCCN2CCCC2)c(OC)c1 [Buflomedil, 4-pyrrolidin-1-yl-1-(2,4,6-trimethoxyphenyl)butan-1-one]
difference in IC50s between oxaliplatin and cisplatin as substrate (OCT2 or MATE1) (OCT2 and MATE1): nearly identical IC50s; also recorded: no/minimal difference in its IC50s
selectivity toward OCT2 over MATE1, cisplatin or oxaliplatin as substrate (OCT2 and MATE1): great selectivity toward OCT2
cellular accumulation of oxaliplatin in cells co-expressing OCT2 and MATE1 [1]: reduced cellular accumulation of oxaliplatin
effect on cisplatin cytotoxicity [2]: significantly reduced cytotoxicity from 1 mM of cisplatin
concentration at 10 min ([3]; Balb/C, other: IV/IP (intravenous group and intraperitoneal groups), 10 mg/kg IV, 20 or 40 mg/kg IP, each group): > 2000 ng/mL
bioavailability ([3]; ip, Balb/C mice, read-out: estimated bioavailability of IP administration): 40 to 60%
mechanical allodynia, Dynamic Aesthesiometer Test at the end of treatment ([4]; listed as BFMD): only the groups treated with OXA alone showed the development of mechanical allodynia
mechanical allodynia, Dynamic Aesthesiometer Test at the end of treatment ([4]; listed as buflomedil): effective on preventing mechanical allodynia
mechanical allodynia (mechanical pain threshold) ([4]; buflomedil 80 mg/kg po 2 hours before OXA, 8 cycles, n=3/group): effective on reducing mechanical (FIG. 30A) and cold (FIG. 30B) allodynia; also recorded: showed protective effects against OXAIPN
pharmacokinetic interaction between BFMD and OXA (plasma levels) [5]: No pharmacokinetic interaction was observed
plasma level at the end of the study ([5]; BFMD 30 mg/kg ip + 15 mg/kg iv): > 1720 ng/mL
mortality [6]: Two animals (BFMD and OXA+BFMD groups) died after the first administration; also recorded: one animal (OXA+BFMD group) died after the last administration

SMILES: C[C@@H]1CCO[C@H]2Cn3cc(C(=O)NCc4ccc(F)cc4F)c(=O)c(O)c3C(=O)N12 [Dolutegravir]
effect of route of administration on plasma exposure [7]: route of administration significantly affected dolutegravir plasma exposure
Mechanical Pain Threshold (MPT), mechanical hypersensitivity [8]: effective on reducing mechanical hypersensitivity
Mechanical Pain Threshold (MPT), mechanical hypersensitivity ([8]; listed as DTG): nearly completely alleviated mechanical hypersensitivity

Plasma peak unbound concentration Cmax,u [9]: 1190 nM
SMILES: Clc1ccc(COC(Cn2ccnc2)c2ccc(Cl)cc2Cl)c(Cl)c1 (stereo not shown) [Miconazole]
